For one compound, IC50 results are on record in patent publication US7704995B2 (Exelixis, Inc., priority 2003, dated 2010).

Structures are written as SMILES.

Assay [1] addresses T1, MAP4K3 (Homo sapiens, UniProt Q8IVH8).
T1 sequence (Q8IVH8 1-894): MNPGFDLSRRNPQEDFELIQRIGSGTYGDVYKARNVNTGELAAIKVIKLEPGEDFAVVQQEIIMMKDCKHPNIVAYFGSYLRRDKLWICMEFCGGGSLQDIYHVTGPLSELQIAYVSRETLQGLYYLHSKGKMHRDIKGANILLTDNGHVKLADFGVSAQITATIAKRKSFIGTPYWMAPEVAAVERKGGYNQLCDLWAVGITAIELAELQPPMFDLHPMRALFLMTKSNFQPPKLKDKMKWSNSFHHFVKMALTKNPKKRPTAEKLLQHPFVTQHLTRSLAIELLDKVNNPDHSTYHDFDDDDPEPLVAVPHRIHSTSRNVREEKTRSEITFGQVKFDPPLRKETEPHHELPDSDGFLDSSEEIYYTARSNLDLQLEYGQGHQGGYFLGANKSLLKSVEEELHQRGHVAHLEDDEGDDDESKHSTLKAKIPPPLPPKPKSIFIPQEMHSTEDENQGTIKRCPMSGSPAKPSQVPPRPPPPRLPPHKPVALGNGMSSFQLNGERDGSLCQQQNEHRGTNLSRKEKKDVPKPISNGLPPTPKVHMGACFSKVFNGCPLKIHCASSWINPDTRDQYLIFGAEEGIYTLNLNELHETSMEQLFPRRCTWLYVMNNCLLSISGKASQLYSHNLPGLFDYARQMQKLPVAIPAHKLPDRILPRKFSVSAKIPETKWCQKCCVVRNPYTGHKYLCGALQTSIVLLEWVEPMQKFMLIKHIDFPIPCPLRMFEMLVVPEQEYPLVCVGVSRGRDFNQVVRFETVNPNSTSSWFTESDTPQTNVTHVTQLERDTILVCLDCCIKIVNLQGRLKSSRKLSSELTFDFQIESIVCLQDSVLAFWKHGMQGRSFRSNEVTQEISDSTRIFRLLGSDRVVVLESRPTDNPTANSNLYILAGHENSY
The experiment in a line: Kinase specificity assay (33P phosphoryl transfer, LCCA or AlphaScreen). Type of assay: biochemical. Particulars: ATP close to KM; read-out: MAP4K3 inhibition, IC50.

Assay [2] has as its target KDR (Homo sapiens, UniProt P35968). Described as above. Type of assay: biochemical. The settings on record: ATP close to KM; read-out: KDR inhibition, IC50. As to the method:
Kinase activity and compound inhibition are investigated using one or more of the three assay formats described below. The ATP concentrations for each assay are selected to be close to the Michaelis-Menten constant (KM) for each individual kinase. Dose-response experiments are performed at 10 different inhibitor concentrations in a 384-well plate format.
The coating solution is aspirated and the plates are washed once with 50 μL of assay buffer and padded dry. […] The plates are subsequently washed 6-12 times with PBST or TBS buffer.

Chain of KDR (P35968 20-1356): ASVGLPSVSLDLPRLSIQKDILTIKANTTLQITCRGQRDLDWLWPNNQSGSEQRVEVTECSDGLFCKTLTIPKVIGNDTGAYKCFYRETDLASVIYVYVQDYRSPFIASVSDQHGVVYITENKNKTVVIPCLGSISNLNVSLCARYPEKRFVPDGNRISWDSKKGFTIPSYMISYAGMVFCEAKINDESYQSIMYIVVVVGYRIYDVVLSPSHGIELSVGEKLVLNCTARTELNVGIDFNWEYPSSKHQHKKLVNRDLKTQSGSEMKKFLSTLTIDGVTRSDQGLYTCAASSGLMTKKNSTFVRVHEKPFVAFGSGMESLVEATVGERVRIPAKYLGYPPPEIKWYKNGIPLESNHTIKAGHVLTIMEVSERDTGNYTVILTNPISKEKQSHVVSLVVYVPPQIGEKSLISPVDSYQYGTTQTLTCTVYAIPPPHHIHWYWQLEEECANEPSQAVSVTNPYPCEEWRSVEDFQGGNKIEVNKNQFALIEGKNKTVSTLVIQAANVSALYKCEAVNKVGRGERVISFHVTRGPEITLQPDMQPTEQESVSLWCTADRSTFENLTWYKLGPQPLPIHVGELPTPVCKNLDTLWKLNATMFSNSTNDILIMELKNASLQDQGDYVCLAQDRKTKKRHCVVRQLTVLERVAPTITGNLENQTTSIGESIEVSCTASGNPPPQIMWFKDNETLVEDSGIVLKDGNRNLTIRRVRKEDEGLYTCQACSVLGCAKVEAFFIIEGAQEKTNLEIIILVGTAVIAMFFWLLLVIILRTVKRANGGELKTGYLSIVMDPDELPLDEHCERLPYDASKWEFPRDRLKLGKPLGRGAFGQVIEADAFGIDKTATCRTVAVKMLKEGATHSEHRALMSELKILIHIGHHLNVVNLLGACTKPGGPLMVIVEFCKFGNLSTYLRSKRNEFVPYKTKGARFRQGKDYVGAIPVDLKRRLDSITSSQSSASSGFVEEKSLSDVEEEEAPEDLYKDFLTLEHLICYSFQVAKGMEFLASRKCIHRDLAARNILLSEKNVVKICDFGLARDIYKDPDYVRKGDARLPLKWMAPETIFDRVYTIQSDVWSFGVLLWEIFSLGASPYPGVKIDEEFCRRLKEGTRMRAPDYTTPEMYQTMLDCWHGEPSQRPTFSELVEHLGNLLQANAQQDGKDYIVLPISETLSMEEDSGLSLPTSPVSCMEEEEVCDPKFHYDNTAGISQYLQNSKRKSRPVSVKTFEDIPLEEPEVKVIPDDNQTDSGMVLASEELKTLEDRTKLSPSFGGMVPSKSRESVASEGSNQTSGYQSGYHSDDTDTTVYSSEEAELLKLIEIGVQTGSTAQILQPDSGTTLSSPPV

In the case of `NC(=O)c1nc(-c2cccc3ccccc23)cnc1N` [Example 2, 3-Amino-6-naphthalen-1-ylpyrazine-2-carboxamide], the IC50 was less than 50 nM in assay [1] and 50 to 1000 nM in assay [2].
